Results as given in patent publication US20110105409A1, “Anticancer Compounds” (priority 2008, published 2011).
Starred links: 1 amine or outer side, 2 acyl side, 3 side chain; linkers in the order of their positions; H or OH if unused. Positions of bridges follow the written chain, without caps; N, C: chain ends. Non-standard residues stand in square brackets, D forms with d. Residues, ends and D or L forms follow the SMILES beside them. ξ: configuration not given here. *: point of attachment. γ4hArg(2R,3R-(OH)2) = N=C(N)NCCC[C@H](N[*:1])[C@@H](O)[C@@H](O)C(=O)[*:2]; Heptanoyl(3R-OH,2R,4R,6-Me3) = CC(C)C[C@@H](C)[C@@H](O)[C@@H](C)C(=O)*; Gln(3S,4R-Me2) = C[C@H]([C@H](N)C(=O)O)[C@@H](C)C(N)=O; ξThr(3R)(O-yl) = C[C@@H](O[*:3])C(N[*:1])C(=O)[*:2]; dTyr(βR-OMe) = CO[C@H](c1ccc(O)cc1)[C@@H](N)C(=O)O; X6 = C[C@H](C(N[*:1])C(=O)[*:2])[C@@H](C)C(N)=O; X7 = CO[C@H](c1ccc(O)cc1)C(N[*:1])C(=O)[*:2]; dAsn(3S-OH) = NC(=O)[C@@H](O)[C@@H](N)C(=O)O; X5 = C[C@@H]1[C@@H](C(=O)*)NC(=O)[C@@H]1C; X4 = CC(C)(O)C(N[*:1])C(O)C(O)C(=O)[*:2]; ξGln(3,4-Me2) = CC(C(N)=O)C(C)C(N)C(=O)O; Abu(3S-NH2) = C[C@H](N)[C@H](N)C(=O)O; ξAsn(3ξ-OMe) = COC(C(N)=O)C(N)C(=O)O; d(aThr) = C[C@@H](O)[C@@H](N)C(=O)O; NMeQ = CN[C@@H](CCC(N)=O)C(=O)O; X1 = CC(C)CC(C)/C=C\C(O)CC(=O)*; ξThr(3R) = C[C@@H](O)C(N)C(=O)O; X3 = CCC(C)CC(C)C(O)C(C)C(=O)*; NMeL = CN[C@@H](CC(C)C)C(=O)O; X2 = CCCC(C)/C=C\C(O)CC(=O)*; Pip = O=C(O)[C@@H]1CCCCN1; NMeA = CN[C@@H](C)C(=O)O; dDap = NC[C@@H](N)C(=O)O; ξOrn = NCCCC(N)C(=O)O

Assays:
[1] = test system: A549; assay: SRB colorimetric cytotoxicity assay, A549; type: cell-based, human; conditions: for TGI / GI50: A549, 72 hours treatment, SRB; for CC50 / GI50: Homo sapiens; for CC50: A549, 72 h, read-out: LC50
Text: (§1) The aim of this assay is to evaluate the in vitro cytostatic (ability to delay or arrest tumor cell growth) or cytotoxic (ability to kill tumor cells) activity of the samples being tested.
(§2) A colorimetric assay, using sulforhodamine B (SRB) reaction has been adapted to provide a quantitative measurement of cell growth and viability (following the technique described by Skehan et al. J. Natl. Cancer Inst. 1990, 82, 1107-1112).
(§3) This form of assay employs SBS-standard 96-well cell culture microplates (Faircloth et al. Methods in Cell Science, 1988, 11(4), 201-205; Mosmann et al, Journal of Immunological Methods, 1983, 65(1-2), 55-63). All the cell lines used in this study were obtained from the American Type Culture Collection (ATCC) and derive from different types of human cancer.
(§4) Cells were maintained in Dulbecco's Modified Eagle Medium (DMEM) supplemented with 10% Fetal Bovine Serum (FBS), 2 mM L-glutamine, 100 U/mL penicillin and 100 U/mL streptomycin at 37° C., 5% CO2 and 98% humidity. For the experiments, cells were harvested from subconfluent cultures using trypsinization and resuspended in fresh medium before counting and plating.
(§5) Cells were seeded in 96 well microtiter plates, at 5×10^3-7.5×10^3 cells per well in aliquots of 150 μL, and allowed to attach to the plate surface for 18 hours (overnight) in drug free medium. After that, one control (untreated) plate of each cell line was fixed (as described below) and used for time zero reference value. Culture plates were then treated with test compounds (50 μL aliquots of 4× stock solutions in complete culture medium plus 4% DMSO) using ten serial dilutions (concentrations ranging from 10 to 0.00262 μg/mL) and triplicate cultures (1% final concentration of DMSO). After 72 hours treatment, the antitumor effect was measured by using the SRB methodology: Briefly, cells were washed twice with PBS, fixed for 15 min in 1% glutaraldehyde solution at room temperature, rinsed twice in PBS, and stained in 0.4% SRB solution for 30 min at room temperature. Cells were then rinsed several times with 1% acetic acid solution and air-dried at room temperature. SRB was then extracted in 10 mM trizma base solution and the absorbance measured in an automated spectrophotometric plate reader at 490 nm. Effects on cell growth and survival were estimated by applying the NCI algorithm (Boyd M R and Paull K D. Drug Dev. Res. 1995, 34, 91-104).
(§6) Using the mean±SD of triplicate cultures, a dose-response curve was automatically generated using nonlinear regression analysis. Three reference parameters were calculated (NCI algorithm) by automatic interpolation: GI50=compound concentration that produces 50% cell growth inhibition, as compared to control cultures; TGI=compound concentration that produces total cell growth inhibition (cytostatic effect), as compared to control cultures, and LC50=compound concentration that produces 50% net cell killing (cytotoxic effect).

[2] = test system: MDA-MB-231; assay: SRB colorimetric cytotoxicity assay, MDA-MB-231; type: cell-based, human; conditions: for CC50 / GI50: Homo sapiens; for CC50: MDA-MB-231, 72 h, read-out: LC50; for GI50 / TGI: MDA-MB-231, 72 hours treatment, SRB
Text: as §1, §2, §3, §4, §5, §6

[3] = test system: HT29; assay: SRB colorimetric cytotoxicity assay, HT29; type: cell-based, human; conditions: for TGI / GI50: HT29, 72 hours treatment, SRB; for CC50 / GI50: Homo sapiens; for CC50: HT-29, 72 h, read-out: LC50; for GI50: HT-29
Text: as §1, §2, §3, §4, §5, §6

[4] = test system: HIV-1 (Lai strain); conditions: CEM4 cells; cited from earlier work
[5] = test system: Candida albicans; conditions: 100 μg/disc (6 mm); cited from earlier work
[6] = test system: guinea pig atria; conditions: cited from earlier work
[7] = test system: Na^+/Ca^2+ exchanger; conditions: cited from earlier work
[8] = test system: CEM4 lymphocytic cell lines; conditions: CEM4 lymphocytic cell lines infected with HIV-1 (Lai strain); cited from earlier work
[9] = test system: NSCLC-N6, E39, P388, and M96 tumor cells; conditions: range over NSCLC-N6, E39, P388 and M96 tumor cells; cited from earlier work
[10] = test system: HIV-1; conditions: cytoprotective activity against HIV-1 infection; cited from earlier work
[11] = test system: HCT-116 (human colon tumor); conditions: HCT-116 cell line, cytotoxic activity; cited from earlier work
[12] = test system: CEM-TART (CEM T-cells expressing both HIV-1 tat and rev); conditions: CEM-TART cell line, cytotoxic activity; cited from earlier work
[13] = test system: HIV-1RF; conditions: infection of human T-lymphoblastoid cells by HIV-1RF in vitro; cited from earlier work
[14] = test system: panel of human cancer cell lines; conditions: mean over panel of human cancer cell lines; cited from earlier work

Which TGI [1] does the source give for `COC[C@H]1NC(=O)[C@H](NC(=O)C(NC(=O)[C@@H](NC(=O)[C@H](NC(=O)[C@H](NC(=O)CC(O)/C=C\C(C)CC(C)C)[C@H](O)C(N)=O)[C@@H](C)O)[C@H](C)N)C(C)C(C)C(N)=O)[C@@H](C)OC(=O)[C@H](C)N(C)C(=O)[C@@H]([C@H](OC)c2ccc(O)cc2)NC(=O)[C@H](CCC(N)=O)N(C)C(=O)[C@H](CC(C)C)NC(=O)CNC1=O` (stereo partly drawn) [Stellatolide A] (X1-[dAsn(3S-OH)][d(aThr)][Abu(3S-NH2)][ξGln(3,4-Me2)][d(aThr)][dS](Me)GL[NMeQ][dTyr(βR-OMe)][NMeA]; ester 5-C) here?
Its TGI is 1.97E−07 Molar.

And the CC50 [1]?
Its CC50 is 406 nM.

What about the GI50 [1] of the same compound?
Its GI50 is 101 nM.

And the CC50 [2]?
Its CC50 is 761 nM.

And the GI50 [2]?
The GI50 was 330 nM.

What about the TGI [2] of the same compound?
The TGI was 4.95E−07 Molar.

What about the TGI [3] of the same compound?
The TGI was 8.88E−07 Molar.

What about the CC50 [3] of the same compound?
The CC50 was 1330 nM.

And the GI50 [3]?
The GI50 was 603 nM.

Which results are given for `CCCC(C)/C=C\C(O)CC(=O)N[C@@H](C(=O)N[C@@H](C(=O)N[C@H](C(=O)NC(C(=O)N[C@H]1C(=O)N[C@H](COC)C(=O)NCC(=O)N[C@@H](CC(C)C)C(=O)N(C)[C@@H](CCC(N)=O)C(=O)N[C@H]([C@H](OC)c2ccc(O)cc2)C(=O)N(C)[C@@H](C)C(=O)O[C@@H]1C)C(C)C(C)C(N)=O)[C@H](C)N)[C@@H](C)O)[C@H](O)C(N)=O` (stereo partly drawn) [Stellatolide B] (X2-[dAsn(3S-OH)][d(aThr)][Abu(3S-NH2)][ξGln(3,4-Me2)][d(aThr)][dS](Me)GL[NMeQ][dTyr(βR-OMe)][NMeA]; ester 5-C)?
TGI [1]: 1.09E−06 Molar; CC50 [1]: 1920 nM; GI50 [1]: 640 nM; CC50 [2]: 1730 nM; GI50 [2]: 704 nM; TGI [2]: 1.09E−06 Molar; TGI [3]: 1.60E−06 Molar; CC50 [3]: 2370 nM; GI50 [3]: 1150 nM

With `CO[C@H](c1ccc(O)cc1)[C@H]1NC(=O)[C@H](CCC(N)=O)N(C)C(=O)[C@H](CC(C)C)NC(=O)[C@@H](CCCN=C(N)N)NC(=O)[C@H]([C@@H](C)O)NC(=O)[C@@H](NC(=O)[C@@H](NC(=O)[C@H](O)[C@H](O)[C@H](CCCN=C(N)N)NC(=O)[C@@H](C)NC(=O)[C@H](C)[C@H](O)[C@H](C)CC(C)C)[C@@H](C)[C@@H](C)C(N)=O)[C@@H](C)OC(=O)[C@H](C)N(C)C1=O` [callipeltin A] ({Heptanoyl(3R-OH,2R,4R,6-Me3)}-[dA][γ4hArg(2R,3R-(OH)2)][Gln(3S,4R-Me2)]TT[dR]L[NMeQ][dTyr(βR-OMe)][NMeA]; ester 4-C) as the compound, how does the “selectivity index (SI ratio CD50/ED50)” value [4] read?
The value was 29.

And the “inhibition of growth (zone)” value [5]?
Its value is 30 mm.

And the inotropic effect [6]?
The inotropic effect was “positive inotropic agent”.

And the “inhibition of the Na+/Ca2+ exchanger” value [7]?
Its value is “selective and powerful inhibitor”.

And the CD50 [8]?
The CD50 was 0.29 µg/mL.

For `CO[C@H](c1ccc(O)cc1)[C@H]1NC(=O)[C@H](CCC(N)=O)N(C)C(=O)[C@H](CC(C)C)NC(=O)[C@@H](CCCNC(=N)N)NC(=O)[C@@H]([C@@H](C)O)NC(=O)[C@H](NC(=O)[C@H]2NC(=O)[C@H](C)[C@@H]2C)[C@@H](C)OC(=O)[C@H](C)N(C)C1=O` [callipeltin B] (X5-[d(aThr)][d(aThr)][dR]L[NMeQ][dTyr(βR-OMe)][NMeA]; ester 1-C), which IC50 [9] is on record?
The IC50 was 1.3 to >30 μg/mL.

For `CO[C@H](c1ccc(O)cc1)C1NC(=O)[C@H](CCC(N)=O)N(C)C(=O)[C@H](CC(C)C)NC(=O)[C@@H](CCCNC(=N)N)NC(=O)C([C@@H](C)O)NC(=O)C(NC(=O)C(NC(=O)[C@H](O)[C@H](O)[C@H](CCCNC(=N)N)NC(=O)[C@H](CC(N)=O)NC(=O)[C@H](C)[C@H](O)[C@H](C)CC(C)C)[C@@H](C)[C@@H](C)C(N)=O)[C@@H](C)OC(=O)[C@@H]2CCCCN2C(=O)[C@@H](CC(N)=O)NC1=O` (stereo partly drawn) [neamphamide A] ({Heptanoyl(3R-OH,2R,4R,6-Me3)}-N[γ4hArg(2R,3R-(OH)2)][X6][ξThr(3R)(O-yl)][ξThr(3R)][dR]L[NMeQ][X7][dN][Pip]; ester 4-C), which EC50 [10] is on record?
The EC50 was roughly 28 nM.

What does the source list for `CCC(C)CC(C)C(O)C(C)C(=O)N[C@H](CN)C(=O)NC(C(O)C(O)C(=O)NC(C(=O)N[C@H]1C(=O)N[C@H]([C@@H](C)O)C(=O)NC(CCCN)C(=O)N[C@@H](CC(C)C)C(=O)N(C)[C@@H](CCC(N)=O)C(=O)NC(C(OC)C(N)=O)C(=O)N[C@H](CC(N)=O)C(=O)N(C)[C@@H](CC(C)C)C(=O)O[C@@H]1C)C(C)C(C)C(N)=O)C(C)(C)O` (stereo partly drawn) [theopapuamide] (X3-[dDap][X4][ξGln(3,4-Me2)][d(aThr)][d(aThr)][ξOrn]L[NMeQ][ξAsn(3ξ-OMe)][dN][NMeL]; ester 4-C)?
EC50 [11]: 900 nM; EC50 [12]: 500 nM

With papuamide A as the compound, how does the EC50 [13] read?
The EC50 was “approximately 4 ng/mL”.

What about the “mean IC50” value [14] of the same compound?
Its value is 0.075 µg/mL.

With papuamide B as the compound, how does the EC50 [13] read?
The EC50 was “approximately 4 ng/mL”.
